Activity calls are given as the source filed them. The rule behind the calls is not given here.

Series [1] has as its system BT-474. Briefly: Cytotoxicity against human BT474 cells assessed as reduction in cell survival after 48 hrs by MTT assay. It counts as functional, cell-based. To be noted: BT-474, 48 h.
Another series is filed under the species Capra hircus. Briefly: Inhibition of colchicine binding to goat brain tubulin pre-incubated for 20 mins before colchine addition and measured after 45 mins by fluorescence based assay.
Series [2] concerns HCT-116. Kind of series: Cytotoxicity against human HCT116 cells assessed as cell survival at 10 uM after 48 hrs by MTT assay relative to control. To be noted: HCT-116, 48 h, read-out: Survival. The class given is functional. For orientation: Tetrazolium dyes change colour on reduction, which living cells bring about.
Series [3] relates to MDA-MB-231. Kind of series: Cytotoxicity against human MDA-MB-231 cells assessed as cell survival at 10 uM after 48 hrs by MTT assay relative to control. The class given is functional. To be noted: MDA-MB-231, 48 h, read-out: Survival.
In series [4] the test system is MCF7. Kind of series: Cell cycle arrest in human MCF7 cells assessed as G2/M phase accumulation at 3 uM after […] by propidium iodide staining based flow cytometry. The class given is functional.
The test system of series [5] is Jurkat. Kind of series: Toxicity in human Jurkat cells at 20 uM after 40 hrs by LDH assay. The class given is cell-based.
Series [6] relates to BT-474. Kind of series: Toxicity in human BT474 cells at 20 uM after 40 hrs by LDH assay. It counts as cell-based. To be noted: bt-474, 40 h.
Series [7] deals with Jurkat. Kind of series: Induction of apoptosis in human Jurkat cells increase in caspase 3/7 activity at 1 uM measured up to 180 mins by fluorescence assay relative to control. The class given is functional.
Series [8] deals with MDA-MB-231. Briefly: Cytotoxicity against human MDA-MB-231 cells assessed as reduction in cell survival after 48 hrs by MTT assay. The class given is functional, cell-based. To be noted: MDA-MB-231, 48 h.
In series [9] the test system is MDA-MB-231. Briefly: Toxicity in human MDA-MB-231 cells at 20 uM after 40 hrs by LDH assay. It counts as cell-based. To be noted: mda-mb-231, 40 h.
The subject of series [10] is MCF7. Briefly: Cytotoxicity against human MCF7 cells assessed as cell survival at 10 uM after 48 hrs by MTT assay relative to control. It counts as functional. To be noted: MCF7, 48 h, read-out: Survival.
Series [11] deals with BT-474. Kind of series: Cytotoxicity against human BT474 cells assessed as cell survival at 10 uM after 48 hrs by MTT assay relative to control. It counts as functional. To be noted: BT-474, 48 h, read-out: Survival.
The subject of series [12] is MCF7. Kind of series: Toxicity in human MCF7 cells at 20 uM after 40 hrs by LDH assay. The class given is cell-based. To be noted: mcf7, 40 h.
Series [13] relates to Jurkat. Briefly: Cytotoxicity against human Jurkat cells assessed as reduction in cell survival after 48 hrs by MTT assay. The class given is functional, cell-based.
Series [14] has as its system MCF7. Briefly: Cytotoxicity against human MCF7 cells assessed as reduction in cell survival after 48 hrs by MTT assay. It counts as functional, cell-based. To be noted: MCF7, 48 h.
A short description of series [15]: (§1) Inhibition of porcine brain tubulin polymerization incubated for 5 mins by fluorimetry. More on the design: species or system Sus scrofa.
For series [16], the species on record is Sus scrofa. Described as §1.
For series [17], the species on record is Sus scrofa. Briefly: Inhibition of porcine brain tubulin polymerization at 0.6 uM incubated for 5 mins by fluorimetry.
Series [18] concerns Jurkat. Kind of series: Cytotoxicity against human Jurkat cells assessed as cell survival at 10 uM after 48 hrs by MTT assay relative to control. The class given is functional. To be noted: read-out: Survival.
Series [19] has as its system HCT-116. Kind of series: Toxicity in human HCT116 cells at 20 uM after 40 hrs by LDH assay. The class given is cell-based. To be noted: hct-116, 40 h.
Series [20] relates to HCT-116. Kind of series: Cytotoxicity against human HCT116 cells assessed as reduction in cell survival after 48 hrs by MTT assay. The class given is functional, cell-based. To be noted: HCT-116, 48 h.
For a further series, the system named is P388. Briefly: Cytotoxicity against mouse P388 cells assessed as reduction in cell viability. It counts as functional, cell-based.
The test system of another series is HCT-8. Briefly: Cytotoxicity against human HCT8 cells assessed as reduction in cell viability. It counts as functional, cell-based.
For series [21], the system named is MDA-MB-231. Kind of series: Cytotoxicity against human MDA-MB-231 cells assessed as reduction in cell viability. The class given is functional, cell-based.
In another series the test system is A549. Kind of series: Cytotoxicity against human A549 cells assessed as reduction in cell viability. The class given is functional, cell-based.
The test system of the next series is DU-145. Briefly: Cytotoxicity against human DU145 cells assessed as reduction in cell viability. The class given is functional, cell-based.
The species named for series [22] is Sus scrofa. Kind of series: Inhibition of porcine brain tubulin polymerization at 3.2 uM incubated for 5 mins by fluorimetry.
Series [23] addresses Cyclin-dependent kinase 4 (Homo sapiens, UniProt P11802). Briefly: Inhibition of CDK4 (unknown origin).
The target of series [24] is Receptor tyrosine-protein kinase erbB-2 (Homo sapiens, UniProt P04626). Briefly: Inhibition of c-erbbeta2 (unknown origin).
Sequence of Receptor tyrosine-protein kinase erbB-2 (P04626 whole entry): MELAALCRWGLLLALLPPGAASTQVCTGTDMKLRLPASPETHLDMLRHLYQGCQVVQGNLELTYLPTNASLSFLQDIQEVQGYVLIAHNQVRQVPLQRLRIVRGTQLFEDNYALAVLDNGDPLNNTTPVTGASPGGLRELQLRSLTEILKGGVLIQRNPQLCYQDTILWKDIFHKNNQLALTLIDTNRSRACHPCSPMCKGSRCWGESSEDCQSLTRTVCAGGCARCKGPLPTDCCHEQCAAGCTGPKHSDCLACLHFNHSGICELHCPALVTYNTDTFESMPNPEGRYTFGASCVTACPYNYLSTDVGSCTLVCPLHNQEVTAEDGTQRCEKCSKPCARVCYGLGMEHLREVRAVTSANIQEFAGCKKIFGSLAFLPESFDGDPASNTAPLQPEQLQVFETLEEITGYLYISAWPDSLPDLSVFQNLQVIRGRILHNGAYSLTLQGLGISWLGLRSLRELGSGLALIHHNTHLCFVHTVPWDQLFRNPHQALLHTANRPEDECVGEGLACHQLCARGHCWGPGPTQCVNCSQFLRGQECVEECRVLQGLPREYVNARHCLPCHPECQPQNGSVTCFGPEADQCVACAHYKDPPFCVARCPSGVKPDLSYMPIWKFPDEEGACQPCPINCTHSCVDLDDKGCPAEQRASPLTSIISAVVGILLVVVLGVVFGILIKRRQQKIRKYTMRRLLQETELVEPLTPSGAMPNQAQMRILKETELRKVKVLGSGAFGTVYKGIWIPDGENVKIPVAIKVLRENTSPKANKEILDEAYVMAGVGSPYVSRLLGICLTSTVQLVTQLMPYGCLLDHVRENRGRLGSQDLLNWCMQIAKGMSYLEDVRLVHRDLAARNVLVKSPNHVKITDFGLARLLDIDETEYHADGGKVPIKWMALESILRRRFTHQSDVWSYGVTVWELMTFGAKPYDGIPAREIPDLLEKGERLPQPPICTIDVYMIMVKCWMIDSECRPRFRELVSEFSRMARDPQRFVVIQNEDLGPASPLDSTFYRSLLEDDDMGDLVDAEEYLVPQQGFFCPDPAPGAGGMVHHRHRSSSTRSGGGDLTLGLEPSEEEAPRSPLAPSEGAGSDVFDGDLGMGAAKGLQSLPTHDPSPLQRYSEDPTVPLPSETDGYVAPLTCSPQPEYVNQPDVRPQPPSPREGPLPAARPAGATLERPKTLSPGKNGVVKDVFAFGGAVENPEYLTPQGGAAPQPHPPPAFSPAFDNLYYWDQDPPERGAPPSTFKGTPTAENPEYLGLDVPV

Sequence of Cyclin-dependent kinase 4 (P11802 whole entry): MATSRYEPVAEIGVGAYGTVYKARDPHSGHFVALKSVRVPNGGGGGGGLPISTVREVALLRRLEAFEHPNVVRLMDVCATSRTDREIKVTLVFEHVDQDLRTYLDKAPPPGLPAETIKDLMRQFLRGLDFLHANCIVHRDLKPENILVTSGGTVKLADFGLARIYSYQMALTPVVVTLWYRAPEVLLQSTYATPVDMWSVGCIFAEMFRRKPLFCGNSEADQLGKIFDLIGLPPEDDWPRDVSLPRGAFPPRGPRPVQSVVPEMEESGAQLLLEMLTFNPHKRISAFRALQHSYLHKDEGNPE

Regarding `O=C(N/N=C/c1c[nH]c2ccccc12)C(=O)c1cn(Cc2ccc(Cl)cc2)c2ccccc12`, the IC50 in the series on BT-474 [1] stood at 2.1 µM; with MDA-MB-231 [8] it was 0.5 µM; with Jurkat [13], 0.22 µM; in the series with MCF7 [14], 0.8 µM; in series [15], 0.6 µM; in the series on HCT-116 [20], 0.15 µM. Besides, the inhibition entry in the series listed under Capra hircus is “Dose-dependent effect”; in the series listed under Sus scrofa [16] it was “Dose-dependent effect”; in the series listed under Sus scrofa [17], 50%. Besides, the viability at 10 µM in the series on HCT-116 [2] worked out at 13.3%; in the series on MDA-MB-231 [3], 17.1%; in the series with MCF7 [10] it was 15%; in the series on BT-474 [11], 22.5%; with Jurkat [18] it was 20.6%. The outcome with MCF7 [4] was Active. The Activity in the series on Jurkat [5], in the series on BT-474 [6], with MDA-MB-231 [9], in the series with MCF7 [12] and in the series with HCT-116 [19] was 20 to 25% each time. Besides, in the series with Jurkat [7], the “fold change (FC)” value is listed as 2 - 5.

With `CN1CC(c2c[nH]c3cc(Br)ccc23)N(C)CC1c1c[nH]c2cc(Br)ccc12` (centres undefined), the IC50 in the series with P388 is 15 µM; in the series with HCT-8, 1 to 10 µM; in the series on MDA-MB-231 [21], 1 to 10 µM; with A549, 1 to 10 µM.

`O=C(N/C=C/c1c[nH]c2ccc(Br)cc12)C(=O)c1c[nH]c2c(O)cccc12`: in the series on DU-145, the IC50 came out at 7.6 µM.

With `COc1ccc2[nH]cc(/C=N/NC(=O)C(=O)c3c[nH]c4ccccc34)c2c1`, the IC50 in the series on BT-474 [1] came to 1.1 µM; in the series with MDA-MB-231 [8] it was 1.7 µM; in the series with Jurkat [13] it was 0.5 µM; in the series with MCF7 [14], 1.8 µM; in the series on HCT-116 [20] it was 0.4 µM. Moreover, the viability at 10 µM with HCT-116 [2] was 17.6%; in the series on MDA-MB-231 [3] it was 21.6%; with MCF7 [10], 17.2%; in the series with BT-474 [11], 20.3%; in the series on Jurkat [18] it was 19.3%. The “fold change (FC)” value in the series with Jurkat [7] is listed as 2 - 5.

Take `Brc1ccc2c(-c3c[nH]c(-c4c[nH]c5cc(Br)ccc45)n3)c[nH]c2c1` [NORTOPSENTIN A]: in the series on P388, the IC50 lay in the range of 4.5 to 20.7 µM.

`Brc1ccc2c(-c3c[nH]c(-c4c[nH]c5ccccc45)n3)c[nH]c2c1` [NORTOPSENTIN C]: the IC50 in the series with P388 lay within 4.5 to 20.7 µM.

In the case of `O=C(N/N=C/c1c[nH]c2ccc(Br)cc12)C(=O)c1c[nH]c2ccccc12`, the viability at 10 µM in the series with HCT-116 [2] was 26.3%; in the series with MDA-MB-231 [3], 34%; in the series on MCF7 [10] it was 35%; in the series on BT-474 [11] it was 82.4%; with Jurkat [18], 25.5%. Also, the “fold change (FC)” value with Jurkat [7] is recorded as 2 - 5. In addition, the concentration for half-maximal inhibition (IC50) in the series on MDA-MB-231 [8] was 5.6 µM; with Jurkat [13], 5 µM; with MCF7 [14], 3.3 µM; with HCT-116 [20] it was 6.6 µM.

Take `COc1ccc2c(/C=N/NC(=O)C(=O)c3c[nH]c4ccccc34)c[nH]c2c1`: the viability at 10 µM was 38.8% with HCT-116 [2]; 103% in the series with MDA-MB-231 [3]; 34.6% in the series on MCF7 [10]; 95.6% in the series on BT-474 [11]; 52.1% with Jurkat [18]. Also, the IC50 in the series on Jurkat [13] is 10 µM; in the series on MCF7 [14], 6.1 µM; with HCT-116 [20], 2.5 µM.

`COc1cccc2c1C(=O)c1c(O)c3c(c(O)c1C2=O)C[C@@](O)(C(=O)CO)C[C@@H]3O[C@H]1C[C@H](N)[C@H](O)[C@H](C)O1` [DOXORUBICIN]: the IC50 came out at 0.3 µM with BT-474 [1], 0.55 µM with MDA-MB-231 [8] and 0.26 µM in the series on Jurkat [13]. The viability at 10 µM in the series on HCT-116 [2] worked out at 25%; in the series with MDA-MB-231 [3] it was 22.5%; in the series on MCF7 [10], 27%; in the series with BT-474 [11], 17.6%; in the series on Jurkat [18], 21%.

Consider `O=C(Nc1ccncc1)C(=O)c1cn(Cc2ccc(Cl)cc2)c2ccccc12` [INDIBULIN], for which the IC50 in the series with MCF7 [14] is 1.1 µM.

With `COc1ccc2c(c1)c(/C=N/NC(=O)C(=O)c1c[nH]c3ccc(Br)cc13)cn2Cc1ccc(Cl)cc1`, the viability at 10 µM with HCT-116 [2] came out at 86.1%; in the series with MDA-MB-231 [3] it was 103%; in the series on MCF7 [10] it was 96.1%; with BT-474 [11], 99.1%; in the series on Jurkat [18], 46.6%.

Regarding `COc1cccc(/C=N/NC(=O)C(=O)c2c[nH]c3ccccc23)c1`, the viability at 10 µM with HCT-116 [2] came out at 72.4%; in the series on MDA-MB-231 [3] it was 97.2%; with MCF7 [10], 96.8%; in the series on BT-474 [11], 95.1%; with Jurkat [18], 59.7%.

Take `Cn1c(-c2cn(C)c3ccccc23)cnc1-c1cn(C)c2cc(Br)ccc12` [N-METHYL NORTOPSENTIN B]: the IC50 with P388 lay within 4.5 to 20.7 µM.

Take `COc1ccc2[nH]cc(/C=N/NC(=O)C(=O)c3cn(Cc4ccc(Cl)cc4)c4ccccc34)c2c1`: the IC50 is 2.7 µM in the series with BT-474 [1]; 2.9 µM with MDA-MB-231 [8]; 3.6 µM with Jurkat [13]; 3.8 µM with MCF7 [14]; 4.2 µM with HCT-116 [20]. In addition, the viability at 10 µM with HCT-116 [2] is 38.2%; with MDA-MB-231 [3] it was 29.4%; with MCF7 [10] it was 33.7%; in the series on BT-474 [11], 21.2%; in the series with Jurkat [18], 36.1%. In addition, the Activity with Jurkat [5], in the series on BT-474 [6], with MDA-MB-231 [9], with MCF7 [12] and with HCT-116 [19] was 20 to 25% throughout. Besides, the “fold change (FC)” value in the series on Jurkat [7] is recorded as 2 - 5. The inhibition result in the series listed under Sus scrofa [16] is “Dose-dependent effect”; in the series listed under Sus scrofa [22] it was 50%.

In the case of `O=C1N=C(C(=O)c2c[nH]c3ccccc23)N/C1=C\c1c[nH]c2cc(O)ccc12`, the IC50 in series [23] turned out to be 12.5 µM; in series [24] it was 7.4 µM.

Regarding `O=C(N/C=C/c1c[nH]c2ccccc12)C(=O)c1c[nH]c2ccccc12`, in the series with DU-145, the IC50 turned out to be 7.6 µM.

Take `O=C(N/C=C/c1c[nH]c2cc(Br)ccc12)C(=O)c1c[nH]c2ccccc12`: the IC50 with DU-145 came out at 7.6 µM.

Usually IC50 stands for the concentration that gives 50% inhibition. The term inhibition denotes the percentage by which the read-out fell short of the control.

The values are drawn from ChEMBL document CHEMBL4138086, “Design and synthesis of bis(indolyl)ketohydrazide-hydrazones: Identification of potent and selective novel tubulin inhibitors” (Eur J Med Chem, 2017).
